Data as given in patent publication US6911477B2, “Muscarinic receptor agonists” (Pfizer Inc., priority 1996, dated 2005).
Where a name gives a salt, the structure may show the parent alone.

Cc1cccc(C)c1C(=NC(=Nc1ccccc1)N1CCC(=O)CC1)Nc1ccc(F)cc1 (as salt: hydrochloride) [Example 63, N-(4-fluoro-phenyl)-2,6-dimethyl-N′-[(4-oxo-piperidin-1-yl)-phenylimino-methyl]-benzamidine]
melting point: 228 to 229 °C (dec.)

Cc1cccc(C)c1C(=Nc1ccc(F)cc1)NC(=Nc1ccc(N)cc1)N1CCCCC1C (stereo not drawn) (as salt: hydrochloride) [Example 64, N-[(4-amino-phenylimino)-(2-methyl-piperidin-1-yl)-methyl]-N′-(4-fluoro-phenyl)-2,6-dimethyl-benzamidine]
melting point: 179 to 181 °C

Cc1cccc(C)c1C(=NC(=Nc1ccccc1)N1CCC(=O)CC1C)Nc1ccc(F)cc1 (stereo not drawn) (as salt: hydrochloride) [Example 65, N-(4-fluoro-phenyl)-2,6-dimethyl-N′-[(2-methyl-4-oxo-piperidin-1-yl)-phenylimino-methyl]-benzamidine]
melting point: 215 to 217 °C

Cc1ccccc1C(=NC(=Nc1ccccc1)N1CCCC(O)C1)Nc1ccc(F)cc1 (stereo not drawn) (as salt: hydrochloride) [Example 66, N-(4-fluoro-phenyl)-N′-[(3-hydroxy-piperidin-1-yl)-phenylimino-methyl]-2-methyl-benzamidine]
melting point: > 150 °C

COc1ccc(NC(=NC(=Nc2ccccc2)N2CCCCO2)c2c(C)cccc2C)cc1 (as salt: hydrochloride) [Example 67, N-(4-methoxy-phenyl)-2,6-dimethyl-N′-([1,2]oxazinan-2-yl-phenylimino-methyl)-benzamidine]
melting point: 214 to 215 °C

COc1ccc(N=C(NC(=Nc2ccccc2)N2CCCCCC2)c2c(C)cccc2C)cc1 (as salt: hydrochloride) [Example 68, N-(azepan-1-yl-phenylimino-methyl)-N′-(4-methoxy-phenyl)-2,6-dimethyl-benzamidine]
melting point: 228 to 230 °C (dec.)

Cc1ccccc1C(=NC(=Nc1ccccc1)N1CCC(=O)CC1C)Nc1ccc(F)cc1 (stereo not drawn) (as salt: hydrochloride) [Example 69, N-(4-fluoro-phenyl)-2-methyl-N′-[(2-methyl-4-oxo-piperidin-1-yl)-phenylimino-methyl]-benzamidine]
melting point: > 143 °C

Cc1cccc(C)c1C(=Nc1ccc(F)cc1)NC(=Nc1cccc(N)c1)N1CCCCC1C (stereo not drawn) (as salt: hydrochloride) [Example 70, N-[(3-amino-phenylimino)-(2-methyl-piperidin-1-yl)-methyl]-N′-(4-fluoro-phenyl)-2,6-dimethyl-benzamidine]
melting point: 210 to 213 °C

Cc1cccc(C)c1C(=NC(=Nc1ccccc1)N1CCC(O)CC1C)Nc1ccc(F)cc1 (stereo not drawn) (as salt: hydrochloride) [Example 72, N-(4-fluoro-phenyl)-N′-[(4-hydroxy-2-methyl-piperidin-1-yl)-phenylimino-methyl]-2,6-dimethyl-benzamidine]
melting point: 163 to 166 °C (dec.)

Cc1cccc(C)c1C(=NC(=Nc1ccccc1)N1CCOCC1)Nc1ccc(F)cc1 (as salt: hydrochloride) [Example 76, N-(4-fluoro-phenyl)-2,6-dimethyl-N′-(morpholin-4-yl-phenylimino-methyl)-benzamidine]
melting point: 249 to 251 °C (dec.)

Cc1ccccc1C(=Nc1ccc(F)cc1)NC(=Nc1ccccc1Cl)N1CCCCC1C (stereo not drawn) (as salt: hydrochloride) [Example 79, N-[(2-chloro-phenylimino)-(2-methyl-piperidin-1-yl)-methyl]-N′-(4-fluoro-phenyl)-2-methyl-benzamidine]
melting point: 208 to 210 °C

Cc1cccc(C)c1C(=NC(=Nc1ccccc1)N1CCC(O)CC1C)Nc1ccc(F)cc1 (stereo not drawn) (as salt: hydrochloride) [Example 82, N-(4-fluoro-phenyl)-N′-[(4-hydroxy-2-methyl-piperidin-1-yl)-phenylimino-methyl]-2,6-dimethyl-benzamidine]
melting point: 169 to 172 °C

Cc1ccccc1N=C(N=C(Nc1ccc(F)cc1)c1c(C)cccc1C)N1CCCCC1C (stereo not drawn) (as salt: hydrochloride) [Example 84, N-(4-fluoro-phenyl)-2,6-dimethyl-N′-[(2-methyl-piperidin-1-yl)-o-tolylimino-methyl]-benzamidine]
melting point: 206 to 208 °C

Cc1cccc(C)c1C(=Nc1ccc(F)cc1)NC(=Nc1ccccc1Cl)N1CCCCC1C (stereo not drawn) (as salt: hydrochloride) [Example 85, N-[(2-chloro-phenylimino)-(2-methyl-piperidin-1-yl)-methyl]-N′-(4-fluoro-phenyl)-2,6-dimethyl-benzamidine]
melting point: 207 to 209 °C

Cc1cccc(C)c1C(=NC(=Nc1cccnc1)N1CCCCC1C)Nc1ccc(F)cc1 (stereo not drawn) (as salt: hydrochloride) [Example 86, N-(4-fluoro-phenyl)-2,6-dimethyl-N′-[(2-methyl-piperidin-1-yl)-(pyridin-3-ylimino)-methyl]-benzamidine]
melting point: 207 to 210 °C

COc1ccc(NC(=CC(=Nc2ccccc2)N2CCCCO2)c2ccccc2C)cc1 (as salt: hydrochloride) [Example 94, (3-phenylimino-3-[1,2]oxazinan-2-yl-1-o-tolyl-propenyl)-(4-methoxy-phenyl)-amine]
melting point: 192 to 194 °C

Cc1ccccc1C(=CC(=NC1CCCCC1)N1CCCCO1)Nc1ccc(F)cc1 (as salt: hydrochloride) [Example 95, (3-cyclohexylimino-3-[1,2]oxazinan-2-yl-1-o-tolyl-propenyl)-(4-fluoro-phenyl)-amine]
melting point: 171 to 172 °C

Cc1ccccc1C(=Nc1ccc(F)cc1)NC(=NC1CCCCC1)C1(C)CCCCC1 (as salt: hydrochloride) [Example 96, N-[cyclohexylimino-(1-methyl-cyclohexyl)-methyl]-N′-(4-fluoro-phenyl)-2-methyl-benzamidine]
melting point: 127 to 129 °C

Cc1ccccc1C(=Nc1ccc(F)cc1)NC(=NC1CCCCC1)N1CCCCC1C (stereo not drawn) (as salt: hydrochloride) [Example 97, N-[cyclohexylimino-(2-methyl-piperidin-1-yl)-methyl]-N′-(4-fluoro-phenyl)-2-methyl-benzamidine]
melting point: > 160 °C (dec.)

CCC(C)N=C(NC(=Nc1ccc(F)cc1)c1c(C)cccc1C)N1CCCCC1C (stereo not drawn) (as salt: hydrochloride) [Example 98, N-[sec-butylimino-(2-methyl-piperidin-1-yl)-methyl]-N′-(4-fluoro-phenyl)-2,6-dimethyl-benzamidine]
melting point: 168 to 170 °C (dec.)

Cc1cccc(C)c1C(=NC(=NC(C)C)N1CCCCC1C)Nc1ccc(F)cc1 (stereo not drawn) (as salt: hydrochloride) [Example 99, N-(4-fluoro-phenyl)-N′-[isopropylimino-(2-methyl-piperidin-1-yl)-methyl]-2,6-dimethyl-benzamidine]
melting point: 208 to 210 °C (dec.)

Cc1ccccc1C(=CC(=NC1CCCCC1)N1CCCCC1C)Nc1ccc(F)cc1 (stereo not drawn) (as salt: hydrochloride) [Example 100, [3-cyclohexylimino-3-(2-methyl-piperidin-1-yl)-1-o-tolyl-propenyl]-(4-fluoro-phenyl)-amine]
melting point: > 125 °C (dec.)

Cc1cccc(C)c1C(=Nc1ccc(F)cc1)NC(=NC1CCC1)N1CCCCC1C (stereo not drawn) (as salt: hydrochloride) [Example 102, N-[cyclobutylimino-(2-methyl-piperidin-1-yl)-methyl]-N′-(4-fluoro-phenyl)-2,6-dimethyl-benzamidine]
melting point: 136 to 138 °C

Cc1cccc(C)c1C(=Nc1ccc(F)cc1)NC(=NC1CC1)N1CCCCC1C (stereo not drawn) (as salt: hydrochloride) [Example 103, N-[cyclopropylimino-(2-methyl-piperidin-1-yl)-methyl]-N′-(4-fluoro-phenyl)-2,6-dimethyl-benzamidine]
melting point: 219 to 220 °C

Cc1cccc(C)c1C(=Nc1ccc(F)cc1)NC(=NC1CC1)N1CCCCO1 (as salt: hydrochloride) [Example 104, N-(cyclopropylimino-[1,2]oxazinan-2-yl-methyl)-N′-(4-fluoro-phenyl)-2,6-dimethyl-benzamidine]
melting point: 229 to 231 °C (dec.)

Cc1ccccc1C(=Nc1ccc(F)cc1)NC(=NC1CC1)C1(C)CCCCC1 (as salt: hydrochloride) [Example 106, N-[cyclopropylimino-(1-methyl-cyclohexyl)-methyl]-N′-(4-fluoro-phenyl)-2-methyl-benzamidine]
melting point: 205 to 207 °C

Cc1ccccc1C(=CC(=NC1CC1)N1CCCCO1)Nc1ccc(F)cc1 (as salt: hydrochloride) [Example 107, (3cyclopropylimino-3-[1,2]oxazinan-2-yl-1-o-tolyl-propenyl)-(4-fluoro-phenyl)-amine]
melting point: 140 to 142 °C (dec.)

CC1CCCCN1C(=Nc1ccccc1)NC(=Nc1ccccc1)c1ccccc1 (stereo not drawn) (as salt: hydroiodid) [Example 3, N-[(2-Methyl-piperidin-1-yl)-phenylimino-methyl]-N′-phenyl-benzamidine]
melting point: 219 to 221 °C (dec.)

c1ccc(N=C(N=C(Nc2ccccc2)c2ccccc2)N2CCCCC2)cc1 (as salt: hydroiodid) [Example 12, N-phenyl-N′-(phenylimino-piperidin-1-yl-methyl)-benzamidine]
melting point: 198 to 200 °C (dec.)

c1ccc(N=C(N=C(Nc2ccccc2)c2ccccc2)N2CCSCC2)cc1 (as salt: hydroiodid) [Example 13, N-phenyl-N′-(phenylimino-thiomorpholin-4-yl-methyl)-benzamidine]
melting point: 216 to 218 °C (dec.)

c1ccc(N=C(NC(=Nc2ccccc2)N2CCCCCC2)c2ccccc2)cc1 (as salt: hydroiodid) [Example 17, N-(azepan-1-yl-phenylimino-methyl)-N′-phenyl-benzamidine]
melting point: 228 to 229 °C

COc1ccc(N=C(NC(=Nc2ccccc2)N2CCCCCC2)c2ccccc2)cc1 (as salt: hydroiodid) [Example 18, N-(azepan-1-yl-phenylimino-methyl)-N′-(4-methoxy-phenyl)-benzamidine]
melting point: 241 to 243 °C

Fc1ccc(N=C(NC(=Nc2ccccc2)N2CCCCCC2)c2ccccc2)cc1 (as salt: hydroiodid) [Example 19, N-(azepan-1-yl-phenylimino-methyl)-N′-(4-fluoro-phenyl)-benzamidine]
melting point: > 228 °C (dec.)
